The test system of series [1] is MCF-7 (breast adenocarcinoma). The experiment in a line: SRB antiproliferative assay, 72 h exposure. The series is classed as cell-based, human. To be noted: Homo sapiens, MCF7, 72 h, MCF-7, SRB, read-out: IC50 ± SD MCF-7. The source says:
(§1) Established in vitro, human cell lines MV4-11 (human biphenotypic B myelomonocytic leukemia), MCF-7 (breast cancer), LoVo (colon cancer), LoVo/DX (colon cancer drug resistant), and MCF-10A (normal breast epithelial) were used. The lines were obtained from the American Type Culture Collection (lines MV4-11, LoVo, LoVo/DX, MCF-10A; Rockville, MD, USA) or from the European Collection of Authenticated Cell Cultures (line MCF-7) and are being maintained at the Hirszfeld Institute of Immunology and Experimental Therapy PAS, Wroclaw, Poland.
(§2) MCF-7 cells were cultured in the Eagle’s medium (HIIET PAS, Poland) supplemented with 10% FBS, 8 µg/mL insulin, 2 mM L-glutamine and 1% MEM-non essential amino acid solution 100X (all from Sigma Aldrich, Steinheim, Germany). MCF-10A cells were cultured in the HAM’S F-12 with L-glutamine medium (Corning) supplemented with 10% Hors Serum (Gibco), 10 µg/mL insulin, 0.5 µg/mL hydrocortisone, 20 ng/mL EGFh and 0.05 mg/mL Cholera Toxin from Vibrio cholerae (all from Sigma Aldrich, Steinheim, Germany). All culture mediums were supplemented with 100 units/mL penicillin (Polfa Tarchomin S.A. Poland), and 100 µg/mL streptomycin (Sigma Aldrich). All cell lines were grown at 37 °C with 5% CO2 humidified atmosphere.
(§3) Test solutions of the compounds tested (50 mM) were prepared by dissolving the substances in DMSO (Sigma Aldrich). Afterwards, the tested compounds were diluted in a culture medium to reach the final concentrations at the range of 1-80 μg/mL (250, 125, 25 and 5 μM).
(§4) Twenty-four hours prior to the addition of the tested compounds, the cells were plated in 96-well plates (Sarstedt, Germany) at a density of 1 × 10^4 or 0.75 × 10^4 (MCF-7) cells per well. The assay was performed after 72 h of exposure to varying concentrations of the tested agents. The in vitro cytotoxic effect of all agents was examined using the MTT (MV4-11) or SRB assay. The results were calculated as IC50 (inhibitory concentration 50%) the concentration of tested agent, which is cytotoxic for 50% of the cancer cells. Each compound in each concentration was tested in triplicate in a single experiment, which was repeated 3–4 times.
(§5) This technique was applied for the cytotoxicity screening against cells growing in adherent culture. The details of this technique were described by Skehan et. al.. The cytotoxicity assay was performed after 72 h exposure of the cultured cells to varying concentrations of the tested agents. The cells attached to the plastic were fixed by gently layering cold 50% TCA (trichloroacetic acid, Sigma Aldrich) on the top of the culture medium in each well. The plates were incubated at 4 °C for 1 h and then washed five times with tap water. The cellular material fixed with TCA was stained with 0.1% sulforhodamine B (SRB, Sigma Aldrich) dissolved in 1% acetic acid (POCh) for 30 min. Unbound dye was removed by rinsing (4×) with 1% acetic acid. The protein-bound dye was extracted with 10 mM unbuffered Tris base (Sigma Aldrich) for determination of optical density (at 540 nm) on Synergy H4 photometer (BioTek Instruments). The background optical density was measured in the wells filled with culture medium, without the cells.
(In general: The SRB assay estimates cell density from bound dye.)

Series [2] relates to MV4-11 (human biphenotypic B cell myelomonocytic leukemia). Description: MTT antiproliferative assay, 72 h exposure. In kind it is cell-based.
Excerpt: as §1
(§6) MV4-11 cells were cultured in the RPMI 1640 medium (HIIET PAS, Poland) supplemented with 1.0 mM sodium pyruvate, 2 mM L-glutamine and 10% FBS (all from Sigma Aldrich, Steinheim, Germany), LoVo cells were cultured in the F-12K medium (Life Technologies, Carlsbad, CA, United States) supplemented with 10% FBS (GE Healthcare, Chicago, IL, USA), and LoVo/DX cells were cultured in the mixture of RPMI 1640+OptiMEM (1:1) medium (HIIET PAS) supplemented with 5% FBS (GE Healthcare, Chicago, IL, USA), 2 mM L-glutamine, 1.0 mM sodium pyruvate (all from Sigma Aldrich, Steinheim, Germany) and 0.1 µg/mL doxorubicin chloride (Accord).
as §3, §4
This technique was applied for cells growing in suspension culture. An assay was performed after 72 h exposure to varying concentrations of the tested agents. For the last 4 h of incubation, 20 µL of MTT solution was added to each well (MTT: 3-(4,5-dimethylthiazol-2-yl)-2,5-diphenyl tetrazolium bromide; stock solution: 5 mg/mL, Sigma Aldrich). When the incubation time was completed, 80 µL of the lysing mixture was added to each well (lysing mixture: 225 mL dimethylformamide, POCh, Gliwice, Poland, 67.5 g sodium dodecyl sulfate, Sigma Aldrich, and 275 mL of distilled water). After 24 h, when formazan crystals had been dissolved, the optical densities of the samples were read on Synergy H4 photometer (BioTek Instruments, USA) at 570 nm wavelength. The background optical density was measured in the wells filled with culture medium, without the cells.

Series [3] has as its system MCF-10A (normal non-tumorigenic epithelial cell line derived from mammary gland). Description: SRB cytotoxicity assay, 72 h exposure. The series is classed as cell-based, human. Particulars: Homo sapiens; MCF-10A normal cells, SRB, 72 h; read-out: IC50 ± SD MCF-10A.
Excerpt: as §1, §2, §3, §4, §5

In series [4] the test system is LoVo/DX (human colon adenocarcinoma, resistant to doxorubicin). The experiment in a line: SRB antiproliferative assay, 72 h exposure; resistance index. The series is classed as cell-based.
Excerpt: as §1, §6, §3, §4
The resistance indexes (RI) were calculated by dividing the IC50 values of the compounds tested against the cells of drug resistant cell LoVo/DX line by respective values obtained against the cells of drug sensitive LoVo line (Table 2). According to Harker et al., three categories of the cells could be distinguished: (a) the cells are drug-sensitive if the ratio approaches 0–2; (b) the cells are moderately drug-resistant if the ratio ranges from 2 to 10; (c) the cells are markedly drug-resistant if the ratio is higher than 10.
as §5

Series [5] deals with LoVo (human colon adenocarcinoma, sensitive). Description: SRB antiproliferative assay, 72 h exposure. Particulars: Homo sapiens, read-out: IC50 ± SD LoVo. The series is classed as cell-based.
Excerpt: as §1, §6, §3, §4, §5

“And” between values parts separate entries of the source, which are not always exact repeats. Identical values can stand only once.

Consider `COc1cccc(/C=N/NC(=O)c2c(C)nsc2Cl)c1` [Compound 7, 5-Chloro-N’-[(E)-(3-methoxyphenyl)methylidene]-3-methylisothiazole-4-carbohydrazide], for which the melting point (in general, the temperature, or range, at which the solid turns liquid) lay in the range of 139 to 140 °C. For the same compound, the concentration for half-maximal inhibition (IC50) (usually the concentration at which inhibition is half-maximal) in series [1] was 17.8 µg/mL and 58 µM. The IC50 in series [2] (Homo sapiens, MV4-11, 72 h, MV4-11, MTT, 72 h, n.a. = no activity in a concentration of 1–80 μg/mL) is 22.4 µg/mL and 72.3 µM. Also, the “antiproliferative activity relative to phenyl derivative 8” value in series [2] (fold higher than compound 8) was 1.5–2 times. Moreover, the concentration for half-maximal inhibition (IC50) in series [3] is 56 µg/mL and 182 µM. For the same compound, the half-inhibitory concentration (IC50) in series [4] (Homo sapiens, LoVo/DX, 72 h, LoVo/DX, SRB, 72 h, read-out: IC50 ± SD LoVoDX) was 20 µg/mL and 65 µM. For the same compound, the “RI (resistance index)” value in series [4] (IC50 against LoVo/DX divided by IC50 against LoVo) was 0.72. Further, in series [5], the IC50 was 27.8 µg/mL and 90.5 µM.

For the origin of these results see paper PMC6982951, “The N’-Substituted Derivatives of 5-Chloro-3-Methylisothiazole-4-Carboxylic Acid Hydrazide with Antiproliferative Activity” (Molecules, 2019).
